According to PubChem BioAssay AID248 (DTP/NCI, 2004):
Toxic doses and inconclusive results are not listed.

System: L1210 leukemia ip in BDF1 mice, survival T/C
Assay: NCI In Vivo Anticancer Drug Screen. Data for tumor model L1210 Leukemia (intraperitoneal) in B6D2F1 (BDF1) mice
Settings: endpoint: mean survival time, higher = longer survival
In short: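 Ratio derived from survival: compound-dosed mice over vehicle-dosed mice, all bearing a transplantable tumor.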

[1] = dose: 100.0 mg/kg/injection, schedule: Q01DX001 (ip), vehicle: carboxymethylcellulose (CMC)
[2] = dose: 200.0 mg/kg/injection, schedule: Q01DX001 (ip), vehicle: carboxymethylcellulose (CMC)
[3] = dose: 400.0 mg/kg/injection, schedule: Q01DX001 (ip), vehicle: carboxymethylcellulose (CMC)
[4] = dose: 100.0 mg/kg/injection, schedule: Q04DX003 (ip), vehicle: Klucel (hydroxypropylcellulose) (HPC)
[5] = dose: 200.0 mg/kg/injection, schedule: Q04DX003 (ip), vehicle: Klucel (hydroxypropylcellulose) (HPC)
[6] = dose: 400.0 mg/kg/injection, schedule: Q04DX003 (ip), vehicle: Klucel (hydroxypropylcellulose) (HPC)
[7] = dose: 100.0 mg/kg/injection, schedule: Q04DX003 (ip), vehicle: saline with Tween-80
[8] = dose: 200.0 mg/kg/injection, schedule: Q04DX003 (ip), vehicle: saline with Tween-80
[9] = dose: 400.0 mg/kg/injection, schedule: Q04DX003 (ip), vehicle: saline with Tween-80
[10] = dose: 100.0 mg/kg/injection, schedule: Q01DX001 (ip), vehicle: saline with Tween-80
[11] = dose: 25.0 mg/kg/injection, schedule: Q01DX009 (ip), vehicle: saline
[12] = dose: 100.0 mg/kg/injection, schedule: Q04DX003 (ip), vehicle: saline
[13] = dose: 100.0 mg/kg/injection, schedule: Q01DX009 (ip), vehicle: Klucel (hydroxypropylcellulose) (HPC)
[14] = dose: 200.0 mg/kg/injection, schedule: Q01DX009 (ip), vehicle: Klucel (hydroxypropylcellulose) (HPC)
[15] = dose: 400.0 mg/kg/injection, schedule: Q01DX009 (ip), vehicle: Klucel (hydroxypropylcellulose) (HPC)

With IC1=CC2CCC(C1)C2 (configuration not stated) the T/C (dose: 100.0 mg/kg/injection, schedule: Q01DX009 (ip), vehicle: acetone) was 109 % of control and the T/C (dose: 200.0 mg/kg/injection, schedule: Q01DX009 (ip), vehicle: acetone) was 97 % of control.

With O=C1OC(=O)C2C1C1C=CC2C1(c1ccccc1)c1ccccc1 (configuration not stated) the T/C [1] was 96 % of control, the T/C [2] was 96 % of control and the T/C [3] was 96 % of control.

CCCCC(=O)N/N=C/c1cc(OCC)c(OCC)cc1OCC was tested, and the T/C [1] was 96 % of control, the T/C [2] was 98 % of control and the T/C [3] was 91 % of control.

O=C(CCl)OCC1CC2C=CC1C2 (configuration not stated) was tested, and the T/C (dose: 222.0 mg/kg/injection, schedule: Q01DX Z (ip), vehicle: saline) was 98 % of control, the T/C (dose: 333.0 mg/kg/injection, schedule: Q01DX Z (ip), vehicle: saline) was 100 % of control and the T/C (dose: 500.0 mg/kg/injection, schedule: Q01DX Z (ip), vehicle: saline) was 96 % of control.

With COC(=O)c1ccccc1NC(c1ccccn1)c1ccc2cccnc2c1O (configuration not stated) the T/C (dose: 125.0 mg/kg/injection, schedule: Q01DX Z (ip), vehicle: carboxymethylcellulose (CMC)) was 108 % of control, the T/C (dose: 250.0 mg/kg/injection, schedule: Q01DX Z (ip), vehicle: carboxymethylcellulose (CMC)) was 102 % of control and the T/C (dose: 500.0 mg/kg/injection, schedule: Q01DX Z (ip), vehicle: carboxymethylcellulose (CMC)) was 101 % of control.

For Cc1[nH]c(=S)[nH]c(=O)c1CCC(C)C, the T/C [4] was 113 % of control, the T/C [5] was 100 % of control and the T/C [6] was 106 % of control.

O=C(O)/C=C/C(=O)N1Cc2cc3ccccc3nc2C1 was tested, and the T/C (dose: 10.0 mg/kg/injection, schedule: Q04DX003 (ip), vehicle: saline) was 99 % of control, the T/C (dose: 20.0 mg/kg/injection, schedule: Q04DX003 (ip), vehicle: saline) was 99 % of control and the T/C (dose: 40.0 mg/kg/injection, schedule: Q04DX003 (ip), vehicle: saline) was 105 % of control. For the same molecule, the T/C (dose: 80.0 mg/kg/injection, schedule: Q04DX003 (ip), vehicle: saline) was 100 % of control and the T/C (dose: 160.0 mg/kg/injection, schedule: Q04DX003 (ip), vehicle: saline) was 96 % of control.

With O=C1C=C(Nc2ccccc2)C(=O)C=C1Nc1ccccc1 the T/C [7] was 86 % of control, the T/C [8] was 86 % of control and the T/C [9] was 86 % of control.

CCOC(=O)CCC(NC(=O)c1ccc(NCc2nnc3nc(N)nc(SCc4ccccc4)c3n2)cc1)C(=O)OCC (configuration not stated) was tested, and the T/C [10] was 103 % of control, the T/C (dose: 200.0 mg/kg/injection, schedule: Q01DX001 (ip), vehicle: saline with Tween-80) was 100 % of control and the T/C (dose: 400.0 mg/kg/injection, schedule: Q01DX001 (ip), vehicle: saline with Tween-80) was 105 % of control.

For O=C(Nc1ccccc1)N(O)c1ccccc1, the T/C (dose: 9.0 mg/kg/injection, schedule: Q01DX015 (ip), vehicle: methylcellulose (MC)) was 97 % of control, the T/C (dose: 18.0 mg/kg/injection, schedule: Q01DX015 (ip), vehicle: methylcellulose (MC)) was 97 % of control and the T/C (dose: 25.0 mg/kg/injection, schedule: Q01DX015 (ip), vehicle: methylcellulose (MC)) was 112 % of control. The T/C (dose: 37.5 mg/kg/injection, schedule: Q01DX015 (ip), vehicle: methylcellulose (MC)) was 95 % of control, the T/C (dose: 50.0 mg/kg/injection, schedule: Q01DX015 (ip), vehicle: methylcellulose (MC)) was 103 % of control and the T/C (dose: 100.0 mg/kg/injection, schedule: Q01DX015 (ip), vehicle: methylcellulose (MC)) was 103 % of control. The T/C (dose: 200.0 mg/kg/injection, schedule: Q01DX015 (ip), vehicle: methylcellulose (MC)) was 101 % of control.

With CN(N=O)C(=O)NNC(=O)N(C)N=O the T/C (dose: 6.25 mg/kg/injection, schedule: Q01DX Z (ip), vehicle: carboxymethylcellulose (CMC)) was 103 % of control, the T/C (dose: 20.0 mg/kg/injection, schedule: Q01DX Z (ip), vehicle: carboxymethylcellulose (CMC)) was 152 % of control and the T/C (dose: 50.0 mg/kg/injection, schedule: Q01DX Z (ip), vehicle: carboxymethylcellulose (CMC)) was 89 % of control.

With CCCC[As](=O)(O)CC the T/C [11] was 104 % of control.

CCCCCOC(CN)C(Cl)(Cl)Cl (configuration not stated) was tested, and the T/C [11] was 93 % of control, the T/C (dose: 50.0 mg/kg/injection, schedule: Q01DX009 (ip), vehicle: saline) was 97 % of control and the T/C [12] was 91 % of control.

In the case of CNC(=O)Cc1ccc2cc(OC)c(OC)cc2c1, the T/C [7] is reported as 95 % of control, the T/C [8] is reported as 101 % of control and the T/C [9] is reported as 91 % of control.

In the case of CCN(CC)COC(=O)C(C)(C)C, the T/C (dose: 75.0 mg/kg/injection, schedule: Q01DX001 (ip), vehicle: carboxymethylcellulose (CMC)) is reported as 103 % of control and the T/C (dose: 150.0 mg/kg/injection, schedule: Q01DX001 (ip), vehicle: carboxymethylcellulose (CMC)) is reported as 94 % of control.

For NC1CCCCC1Cl (configuration not stated), the T/C (dose: 100.0 mg/kg/injection, schedule: Q01DX001 (ip), vehicle: saline) was 98 % of control, the T/C (dose: 200.0 mg/kg/injection, schedule: Q01DX001 (ip), vehicle: saline) was 96 % of control and the T/C (dose: 400.0 mg/kg/injection, schedule: Q01DX001 (ip), vehicle: saline) was 98 % of control.

With CCN(CC)c1ccc(NCS(=O)(=O)O)cc1 the T/C (dose: 50.0 mg/kg/injection, schedule: Q01DX009 (ip), vehicle: saline sonified) was 103 % of control, the T/C (dose: 100.0 mg/kg/injection, schedule: Q01DX009 (ip), vehicle: saline sonified) was 101 % of control and the T/C [12] was 110 % of control.

For Nc1cc(/C=C/c2ccc(/C=C/c3ccc(S(=O)(=O)F)cc3)cc2)nc(N)n1, the T/C (dose: 50.0 mg/kg/injection, schedule: Q01DX001 (ip), vehicle: saline with Tween-80) was 87 % of control and the T/C [10] was 92 % of control.

O=C(CCCCC(=O)OCC1COCO1)OCC1COCO1 (configuration not stated) was tested, and the T/C (dose: 222.0 mg/kg/injection, schedule: Q01DX Z (ip), vehicle: methylcellulose (MC)) was 98 % of control, the T/C (dose: 333.0 mg/kg/injection, schedule: Q01DX Z (ip), vehicle: methylcellulose (MC)) was 98 % of control and the T/C (dose: 500.0 mg/kg/injection, schedule: Q01DX Z (ip), vehicle: methylcellulose (MC)) was 98 % of control.

O=[N+]([O-])c1ccc(N/N=C/c2ccnc3ccccc23)cc1 was tested, and the T/C [13] was 93 % of control, the T/C [14] was 91 % of control and the T/C [15] was 91 % of control.

With O=C(N/N=C/C=C/c1ccccc1)c1ccco1 the T/C (dose: 100.0 mg/kg/injection, schedule: Q01DX001 (ip), vehicle: other) was 87 % of control, the T/C (dose: 200.0 mg/kg/injection, schedule: Q01DX001 (ip), vehicle: other) was 87 % of control and the T/C (dose: 400.0 mg/kg/injection, schedule: Q01DX001 (ip), vehicle: other) was 93 % of control.

For COc1ccc(C(=O)Nc2ccc(C)c(Cl)c2)cc1, the T/C (dose: 100.0 mg/kg/injection, schedule: Q04DX002 (ip), vehicle: Klucel (hydroxypropylcellulose) (HPC)) was 115 % of control, the T/C (dose: 200.0 mg/kg/injection, schedule: Q04DX002 (ip), vehicle: Klucel (hydroxypropylcellulose) (HPC)) was 115 % of control and the T/C (dose: 400.0 mg/kg/injection, schedule: Q04DX002 (ip), vehicle: Klucel (hydroxypropylcellulose) (HPC)) was 112 % of control.

For Nc1ncnc2nc(N=Nc3ccc(C(=O)O)c(O)c3)[nH]c12, the T/C [4] was 96 % of control, the T/C [5] was 105 % of control and the T/C [6] was 102 % of control.

With c1ccc([P+](c2ccccc2)(c2ccccc2)C2CN=NC2)cc1 the T/C (dose: 10.0 mg/kg/injection, schedule: Q01DX001 (ip), vehicle: saline) was 103 % of control, the T/C (dose: 20.0 mg/kg/injection, schedule: Q01DX001 (ip), vehicle: saline) was 108 % of control and the T/C (dose: 40.0 mg/kg/injection, schedule: Q01DX001 (ip), vehicle: saline) was 112 % of control.

CC(C)(C)C1=CC(=O)C(Br)=C(N2C3C4CCC(C4)C32)C1=O (configuration not stated) was tested, and the T/C (dose: 100.0 mg/kg/injection, schedule: Q01DX001 (ip), vehicle: Klucel (hydroxypropylcellulose) (HPC)) was 110 % of control, the T/C (dose: 200.0 mg/kg/injection, schedule: Q01DX001 (ip), vehicle: Klucel (hydroxypropylcellulose) (HPC)) was 96 % of control and the T/C (dose: 400.0 mg/kg/injection, schedule: Q01DX001 (ip), vehicle: Klucel (hydroxypropylcellulose) (HPC)) was 94 % of control.

With COc1ccc2c(c1)sc1ncnc(N)c12 the T/C (dose: 50.0 mg/kg/injection, schedule: Q01DX009 (ip), vehicle: Klucel (hydroxypropylcellulose) (HPC)) was 105 % of control, the T/C [13] was 105 % of control and the T/C [14] was 101 % of control.

With CCOC(=O)c1cc(OCC)c2c(ccc3cc(OC)ccc32)n1 the T/C [13] was 96 % of control, the T/C [14] was 94 % of control and the T/C [15] was 93 % of control.
